Legend:
[1] = target: T1, SH2 mediated interaction of middle T and fyn (Homo sapiens, UniProt P06241); assay: Effect on Middle T/fyn interaction (GST-Fyn pull-down of 32P-labeled middle T, autoradiography); assay type: binding; settings: GST-Fyn on glutathione-Sepharose beads, 32P-labeled polyoma Middle T, SDS gel autoradiography (FIG. 6); inhibitor 3.95×10^-4 M to 3.95×10^-5 M
T1 construct: host or cells: middle T: Sf9 cells (baculovirus co-expression with src)
Method: Approximately 10 μg of a GST-Fyn fusion protein bound to 10 μl of glutathione-Sepharose beads were incubated with 90 μl of buffer (TEB, pH 9.0) and 10 μl of DMSO or DMSO containing an isomer (#1 or #2) of compound 36 (lanes 2 and 3 equal 3.95×10^-4 M; lane 4 equals 1.32×10^-4 M; lane 5 equals 3.95×10^-5 M). Lane 1 contains no inhibitor. The lanes labeled "MT 315" (lanes 6 and 7) are reaction mixutures as above, but having 20 μg of peptide (middle T residues EEYMPMED) instead of the benzodiazepine 36. The label "pY" indicates the peptide was phosphorylated, while unphosphoryalated peptide is designated as "-". The reaction mixtures were incubated for 1 hour, then 100 μL ^32 P-labeled Middle T (polyoma), prepared from baculovirus co-expression of middle T and src in Sf9 cells, were added to each reaction and incubated for 1 hour more at 4° C. The sepharose was washed with twice with PBS, and once with distilled water, boiled in SDS dissociation buffer, and run on a 7.5% acrylamide SDS gel. Labeled MT was visualized on the gel by autoradiography, and the inhibition of MT/fyn interaction determined.

lck-SH2 = target: T2, lck-SH2 (Homo sapiens, UniProt P06239); assay: IDEXX lck-SH2 binding assay (GST-SH2 beads, FITC-labeled peptide EPQYEEIPIYL); settings: inhibition of binding of FITC-labeled peptide to GST-lck SH2 beads (FIG. 7)
T2 construct: made in house; host or cells: E. coli
T2 sequence (P06239 127-224 limits assumed): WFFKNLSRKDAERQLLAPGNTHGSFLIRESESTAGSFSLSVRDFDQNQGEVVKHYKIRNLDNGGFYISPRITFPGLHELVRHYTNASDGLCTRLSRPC
Method: In order to assess the inhibitory activity of the present peptidomimetics, the ability of the subject compounds to inhibit the interaction between a specific peptide and an SH2 domain was determined. Various SH2 domains were subcloned in frame with the glutathione-S-transferase affinity tag of the pGEX vector system (Pharmacia catalog no. PGEX-4T-3). The resulting pGEX-E2 construct encoded a glutathione-S-transferase (GST)/SH2 fusion protein (Smith et al. (1988) Gene 67:31-40). The pGEX construct was introduced into E. coli by transfromation, and the transformants grown in liquid media (LB) in the presence of IPTG. Purification of GST/E2 fusion protein was by standard protocols (Current Protocols in Molecular Biology, eds. Ausubel et al. (NY:John Wiley & Sons, 1991); Pharmacia instruction booklet (for catalog no. 27-4570)) using a glutathione-sepharose column (Pharmacia catalog no. 27-4570). Briefly, the cells were pelleted and resuspended in buffer A (50 mM TRIS (pH7.5), 2 mM EDTA, 250 mM NaCl, 5% glycerol (V/V), 1% Tween (V/V), 1% Triton X 100 (V/V)), to which 2 mM PMSF and 15 mM 2-mercaptoethanol were added. […]

T1 sequence (P06241 whole entry, species assumed): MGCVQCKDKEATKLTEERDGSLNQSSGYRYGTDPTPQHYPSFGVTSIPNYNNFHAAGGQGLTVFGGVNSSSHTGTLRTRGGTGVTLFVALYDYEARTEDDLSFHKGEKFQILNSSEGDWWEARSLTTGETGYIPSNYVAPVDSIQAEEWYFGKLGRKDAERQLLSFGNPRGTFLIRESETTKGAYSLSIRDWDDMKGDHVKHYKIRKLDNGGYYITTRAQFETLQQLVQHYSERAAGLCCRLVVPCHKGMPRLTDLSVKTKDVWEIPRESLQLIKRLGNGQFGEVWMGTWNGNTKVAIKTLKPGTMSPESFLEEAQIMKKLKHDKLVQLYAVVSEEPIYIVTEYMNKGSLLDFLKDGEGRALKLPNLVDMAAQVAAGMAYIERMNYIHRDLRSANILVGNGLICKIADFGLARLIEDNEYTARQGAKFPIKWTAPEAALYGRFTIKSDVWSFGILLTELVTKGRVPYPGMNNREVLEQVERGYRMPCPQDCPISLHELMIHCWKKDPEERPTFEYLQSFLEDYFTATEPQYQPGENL

Row | SMILES | inhibition of MT/fyn interaction [1] | IC50 (lck-SH2)
1 | CC[C@H](C)[C@H](NC(=O)CN1C(=O)C(NC(=O)[C@H](Cc2ccc(OP(=O)(O)O)cc2)NC(C)=O)N=C(c2ccccc2)c2ccccc21)C(=O)OC (stereo partly shown) [compound 36] | both isomers of 36 displayed inhibitory action | 271 µM
2 | CC[C@H](C)[C@H](NC(=O)CN1C(=O)C(NC(=O)[C@H](Cc2ccc(OP(=O)(O)O)cc2)NC(=O)OCC2c3ccccc3-c3ccccc32)N=C(c2ccccc2)c2ccccc21)C(=O)OC (stereo partly drawn) [FMOC-derivative, 1,3-Dihydro-1-[(methoxy-L-isoleucyl)carbonylmethyl)-5-phenyl-3(R,S)-{[(N-fluorenylmethoxycarbonyl)phosphono-L-tyrosyl]amino}-2H-1,4-benzodiazepin-2-one] | – | 48.2 µM
3 | CC[C@H](C)[C@H](NC(=O)CN1C(=O)C(NC(=O)[C@H](Cc2ccc(OP(=O)(O)O)cc2)NC(C)=O)N=C(c2ccccc2)c2ccccc21)C(=O)OC (single isomer, unassigned; isomer #2) [isomer #2] | more potent inhibitor | –
